The source of these data is a melting point compilation (Tetko et al.; mined from patent text by program, amines drawn as free bases though some values may be those of a salt).

Some results are limits rather than exact numbers.

A word on the melting point: it is the temperature, or range, at which the solid turns liquid. In turn, `COc1ccc(-c2cc(=O)c3cc(OCCCCCN4CCC(O)CC4)ccc3o2)cc1OC` came in with a melting point of 154 to 155 °C. On to `O=C(Nc1ccc2[nH]c(=O)oc2c1)C(=O)N1CCC(Cc2ccccc2)CC1`, for which the melting point lay in the range of 190 to 193 °C.

`CCCNc1c(C#N)cnn1-c1ccc(Cl)c(Cl)c1Cl` showed a melting point of 95 to 98 °C. `C#Cc1ccc(C2(C3CCCCCCC3)CCCCCCC2)cc1`: the melting point is 167 °C. For the compound `CC(C)C(=O)N[C@@H]1CCc2c(c3cc(C#N)ccc3n2Cc2cccc(F)c2)C1`, the melting point fell in the range of 223 to 225 °C. In the case of `CC1=C(C(=O)Nc2cccc(C#N)c2)SCCO1`, the melting point was 119 to 121 °C. On to `CCOC(=O)c1nnc2ccc(NC(=O)OCc3ccccc3)cc2c1O`, for which the melting point is 250 to 252 °C. As for `CC(C)(O)CNc1nccc(-c2c(-c3ccc(F)cc3F)nc3c(CC4CC4)nccn23)n1`, the figure is 174 to 176 °C.

Compound `CC(=O)CCC(=S)N(CC(=O)O)C1Cc2ccccc2C1` returned a melting point of 120 to 122 °C. `CC(C)(C)OC(=O)N[C@H]1C(=O)N[C@H]1CON1C(=O)c2ccccc2C1=O` (relative stereo) yielded a melting point of 218 to 219 °C. For the compound `Cc1cc(-c2cc(N)n3nc(-c4ccco4)nc3c2)ccn1`, the melting point lay in the range of 100 to 101 °C.

`CCOC(=O)c1cc(-n2c(=O)cc[nH]c2=O)ccc1Cl` returned a melting point of 170 to 172 °C. The compound `CCCCC(Cc1cccnc1)(C(=O)O)S(=O)(=O)c1ccc(OC)cc1` (stereo not given) showed a melting point of 65 °C. Regarding `Cc1ccc(-c2nc(-c3ccc(C)cc3C)nc(-c3cc(C(C)(C)c4ccccc4)c(O)cc3O)n2)c(C)c1`, the melting point was 168 to 170 °C. Take `CCOS(=O)(=O)c1nc2nc(C)cc(Cl)n2n1`: the melting point lay in the range of 166 to 169 °C. Then `CCOC(=O)c1cn(C2CCCO2)c(=O)[nH]c1=O` (stereo not given), with 125 °C. In the case of `N#Cc1ccc(-n2c(=O)cc(C(F)(F)F)n(N)c2=O)cc1O`, the melting point was above 230 °C. In the case of `NC(=NCC(F)(F)F)Nc1cncc(SCCCC(=O)Nc2ccccc2)n1`, the melting point fell in the range of 165 to 167 °C. Turning to `Cc1ccc(C)c2c(=O)n(CCCN3CC=C(c4ccc(Cl)cc4)CC3)c(=O)[nH]c12`, the melting point is 212 to 220 °C. In turn, `C=CCN1C2CCC1C1CCC2N1C(c1ccc(C(=O)N(C)C)cc1)c1cccc(O)c1` (stereo not given) registered a melting point of 99 to 101 °C. In the case of `COC(=O)c1ccc(-c2nc(CCl)c(C)o2)cc1`, the melting point fell in the range of 130 to 131 °C. Compound `CC(Cc1c[nH]c2ccccc12)(NC(=O)OC1C2CC3CC(C2)CC1C3)C(=O)NC(CNC(=O)CCC(=O)O)Cc1ccccc1` (stereo not given) showed a melting point of 110 to 114 °C.

As for `CCN(CC)C(=O)n1cc(F)c(S(=O)(=O)c2c(C)cc(C)cc2C)n1`, the melting point is 109 to 111 °C. With `CCC(=CC(CNC(=O)c1cccnc1O)=NO)C(C)[N+](=O)[O-]` (stereo not given), the melting point fell in the range of 92 to 95 °C. Take `CCn1ncc2c3[nH]nc4c3c(nc21)CCc1ccccc1-4`: the melting point was in the range of 229 to 231 °C. As for `COc1ccccc1N1CCN(CCc2c(C)c3ccc(OC)c(OC)c3oc2=O)CC1`, the figure is 146 to 148 °C; as for `Nc1nccc(Oc2ccc3c(C(=O)Nc4ccc(F)c(C(F)(F)F)c4)nsc3c2)n1`, 237 to 239 °C; as for `CCCCc1cc2cc([N+](=O)[O-])ccc2[nH]1`, 105 °C. As to `CCOC(=O)c1cnn(-c2c(Cl)cc(Cl)cc2Cl)c1C`, the melting point was in the range of 112 to 113 °C. `CCC1CC2(C)C(O)CCC2C2CCc3cccc(O)c3C12` (stereo not given) registered a melting point of 155 to 157 °C. Compound `COc1nc(C)nc(NC(=O)NS(=O)(=O)c2ccccc2C=CC(F)(F)F)n1` gave a melting point of 154 to 155 °C. `O=C1OC(COc2ccc(CCCO)cc2)CN1c1ccc(Cl)cc1` (stereo not given): the melting point lay within 119 to 120 °C. Consider `Cc1cc(-c2nc3cccnn3c2-c2ccnc(NC(=O)NCCO)c2)ccc1F`, for which the melting point was in the range of 189 to 190 °C.

Take `CC(C)(C)C1NC(C(=O)O)CS1` (mixture of isomers): the melting point turned out to be 184 °C. As for `CCOC(=O)C1=C2NCCN2C(C)=C(C(C)=O)C1c1cccc([N+](=O)[O-])c1` (stereo not given), the figure is 155 °C; as for `Cc1cc2c(s1)Oc1ccc(F)cc1NC2=O`, 274 to 275 °C; as for `CN(C)CC1CCc2cc(OC(=O)c3ccc(-c4ccccc4)cc3)ccc2C1` (stereo not given), 85 to 86 °C. The compound `COc1ccc(-c2cnc(NS(=O)(=O)c3ccc(C)cc3)nc2)cc1` displayed a melting point of 220 to 223 °C. `COCOc1cc2c(cc1C=O)C(C)(C)CCC2(C)C` returned a melting point of 84 to 85 °C.

`Nc1nc(C(Br)Br)nc(C(Br)Br)n1` returned a melting point of 171 to 173 °C. With `NC(=O)N1CC(Oc2cccc(F)c2)C1`, the melting point lay within 169 to 170 °C. Regarding `O=C1C(=O)c2ccccc2C2=C1SCC1(CCN(C3CCCC3O)CC1)O2` (stereo not given), the melting point was in the range of 110 to 113 °C.

For `CCOC(=O)C=Cc1ccc(OCCc2nc(-c3ccccc3)oc2C)cc1`, the melting point was 114 to 115 °C. In the case of `Cc1ccn2cc(CCc3ccc4nc(N)oc4c3)nc2c1`, the melting point is 262 to 264 °C. For the compound `CN1CCC[C@@H]1Cc1c[nH]c2ccc(C=CC(C)(C)O)cc12`, the melting point fell in the range of 155 to 158 °C. For `CCC(CC)C(NS(=O)(=O)c1ccc(Cl)s1)c1ccnn1Cc1ccc(O)cc1` (stereo not given), the melting point lay within 90 to 92 °C. As to `O=S(=O)(c1ccc(Cl)cc1)C(c1cc(F)ccc1F)C1CCCCC1` (stereo not given), the melting point lay in the range of 107 to 109 °C. As for `S=C=Nc1ccc(-c2nc(-c3ccco3)no2)cc1`, the figure is 136 to 137 °C; as for `O=C(O)c1cc2cc(Cl)c(Cl)cc2nc1N[C@@H](Cc1ccccc1)C(=O)O`, 141 to 143 °C; as for `COc1ccc(C(=O)c2cccc(F)c2F)c(O)c1Cl`, 161 to 162 °C.

Consider `O=C(O)c1cccc(-c2ccc3c(c2)N(Cc2cc(Cl)cc(Cl)c2)CC3)c1`, for which the melting point lay within 207 to 208 °C. In turn, `CC(C)(C)c1cc(C(=O)c2ccn(Cc3ccccc3)c2)cc(C(C)(C)C)c1O` registered a melting point of 123 to 124 °C. Then `COc1ccc(S(=O)(=O)N2c3ccccc3-c3ccccc3C2c2ccccc2)cc1` (stereo not given), with 145 to 147 °C; and `CCC(=O)Nc1c(C(=O)c2cc(Cl)ccc2NC(C)=O)[nH]c2cc(Cl)ccc12`, with 264 to 266 °C; and `CCOC(=O)c1cc2c(C)cccc2n1CCCC(=O)O`, with 132 to 133 °C. As for `CCc1nc2c(N)nc(C)c(C)c2n1CCOCCN1CCCS1(=O)=O`, the figure is 157 to 159 °C; as for `COc1ccccc1N1CCN(CCNC(=O)c2nsc3ccccc23)CC1`, 107 to 110 °C.

On to `COc1c(C(O)CNC(C)(C)Cc2ccccc2C)ccc(O)c1O` (stereo not given), for which the melting point was found to be 114 °C. Take `O=C(CCCCCBr)Nc1ccc(C(F)(F)F)cc1`: the melting point was 96 to 98 °C.

`Cc1nc2nccc(-c3cccc(C(F)(F)F)c3)n2n1` had a melting point of 153 to 154 °C. `O=Cc1c(-c2ccccc2)nn(-c2ccccc2)c1-c1ccccc1` registered a melting point of 159 to 160 °C.

`Cn1c([N+](=O)[O-])cnc1C=Cc1nnc(-c2ccccc2)s1`: the melting point is 257 °C.

As to `CN1c2ccc(Cl)cc2C(c2ccccc2)=Nc2cccnc21`, the melting point fell in the range of 153 to 156 °C.

Consider `COC(=O)NNC(=O)c1ccc(O)cc1`, for which the melting point lay in the range of 229 to 230 °C.

Take `CCCCCC#CCC(CC#CCCCCC)(C(=O)O)S(=O)(=O)c1ccc(OC)cc1`: the melting point is 61 °C. As for `CN1C(c2ccncc2)CC(=O)CC1c1ccncc1` (stereo not given), the figure is 103 to 106 °C; as for `Cc1c(C(F)(F)F)nc[nH]c1=O`, 175 to 176 °C. `CC(=O)SCCC(=O)N1[C@@H](c2ccccc2O)SC[C@H]1C(=O)N(c1ccccc1)[C@@H](C)C(=O)OC(C)(C)C` had a melting point of 140 to 142 °C. `CC(C)c1c(CCl)c(-c2ccc(F)cc2)nn1-c1ccccc1` had a melting point of 124 to 128 °C. Compound `COC(=O)CCc1oc(=O)[nH]c1-c1ccc(Cl)cc1` gave a melting point of 147 to 148 °C.

As to `CC(=O)CC(=O)N1CCc2cc(C(O)(C(F)(F)F)C(F)(F)F)ccc21`, the melting point fell in the range of 150 to 151 °C. `Cc1ccc(-c2cccnc2)nc1` showed a melting point of 40 to 41 °C. Take `CCn1nc(C)c(CN(C(=O)C2CCCc3ccccc32)c2ccc(C(C)C)cc2)c1C` (stereo not given): the melting point is 142 to 143 °C. The compound `NN(CCO)C(=O)Nc1ccc(Cl)cc1` gave a melting point of 141 to 142 °C. With `CON=C(C(=O)O)c1nc(NC=O)sc1Cl`, the melting point was in the range of 175 to 177 °C. In the case of `O=C(SCC(=O)N1c2ccccc2CCC1C(=O)O)c1ccccc1` (stereo not given), the melting point was in the range of 164 to 168 °C. Compound `O=C(CCCCCCSc1ccccc1)c1ncco1` registered a melting point of 39 to 40 °C. `O=C(Nc1ccccn1)C(CC1CCCC1)c1ccc(Cl)c([N+](=O)[O-])c1` (stereo not given) had a melting point of 48 to 52 °C. Compound `CC(C)(O)Cc1cccc(O)c1` gave a melting point of 91 to 94 °C. `O=C1OC(CCO)c2ccccc21` (stereo not given) yielded a melting point of 122 to 124 °C. Then `O=[N+]([O-])c1ccccc1S(=O)(=O)NOCc1ccccc1`, with 148 to 151 °C. For `CN1CCN(C(=S)Cc2ccc(S(C)(=O)=O)cc2)CC1`, the melting point lay within 172 to 177 °C. `CCCOc1ccc(NC=C(C(=O)OCC)C(=O)OCC)cc1C1=NC(=O)C2=NN=NC2=N1` came in with a melting point of 226 to 227 °C. Consider `O=C(Nc1ccc2c(c1)C(=O)c1cc(NC(=O)c3ccccc3)ccc1C2=O)c1ccccc1`, for which the melting point came to 224 °C. In the case of `O=[N+]([O-])c1cc(Cl)cc(Cc2cc(Cl)cc([N+](=O)[O-])c2O)c1O`, the melting point lay within 163 to 170 °C.

`COC(=O)[C@@H]1CCCC[C@@H]1C(=O)N(C)CC(=O)NO` (relative stereo) had a melting point of 101 to 102 °C. With `C/C(=C\c1ccc(C(=O)OCCO)cc1)c1ccc2c(c1)C(C)(C)CCC2(C)C`, the melting point fell in the range of 138 to 139 °C. In the case of `O=C(O)Cc1cn(-c2ccccc2)c2ccccc12`, the melting point was in the range of 131 to 135 °C. Consider `CCCN(CCC)CCC1=CC(=O)CCC1`, for which the melting point lay in the range of 95 to 97 °C. Consider `CN1CCC(OC2c3ccccc3CCn3c2nc(-c2ccccc2)c3C(=O)O)CC1` (stereo not given), for which the melting point amounted to 185 °C.
